From PubChem BioAssay (NCI)
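48-hour exposure; five concentrations; linearly interpolated endpoints. TGI: concentration producing complete growth inhibition.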

Key:
Test in all cases: inhibition of tumour cell growth, NCI panel, 48 h
U251 CNS = test system: U251 CNS
UACC-62 melanoma = test system: UACC-62 melanoma
A549 NSCLC = test system: A549 NSCLC
MDA-MB-231 breast = test system: MDA-MB-231 breast
CCRF-CEM leukemia = test system: CCRF-CEM leukemia
NCI-H460 lung = test system: NCI-H460 lung
UO-31 renal = test system: UO-31 renal
HOP-62 NSCLC = test system: HOP-62 NSCLC
UACC-257 melanoma = test system: UACC-257 melanoma
HL-60(TB) leukemia = test system: HL-60(TB) leukemia

COc1cc(OC)c(/C=N\Nc2nc3ccccc3c(=O)n2-c2ccccc2)c(OC)c1
TGI (U251 CNS): > 100 µM
TGI (UACC-62 melanoma): 55 µM
TGI (A549 NSCLC): > 78.5 µM
TGI (MDA-MB-231 breast): 65.5 µM
TGI (CCRF-CEM leukemia): 51.6 µM
TGI (NCI-H460 lung): > 77.8 µM
TGI (UO-31 renal): > 81.4 µM
TGI (HOP-62 NSCLC): 47.7 µM
TGI (UACC-257 melanoma): > 76.5 µM
TGI (HL-60(TB) leukemia): > 100 µM
